{"source": "ChEMBL document CHEMBL1649564", "about": "“Anidulafungin treatment of candidal central nervous system infection in a murine model” (Antimicrob Agents Chemother, 2009)", "key": {"Candida albicans [1]": {"tested_on": "Candida albicans", "test": "Antifungal activity against Candida albicans infected in mouse assessed as fungal load in brain at 10 mg/kg, ip after 10 days", "type": "functional", "conditions": "route intraperitoneal"}, "Candida albicans [2]": {"tested_on": "Candida albicans", "test": "Antifungal activity against Candida albicans infected in mouse assessed as decrease in fungal load in brain at 5 mg/kg, ip after 10 days", "type": "functional, organism-based", "design": "dose 5 mg/kg"}, "Candida albicans [3]": {"tested_on": "Candida albicans", "test": "Antifungal activity against Candida albicans infected in mouse assessed as decrease in fungus-induced mortality rate at 5 mg/kg, ip", "type": "functional, organism-based", "design": "dose 5 mg/kg"}, "[4]": {"test": "Plasma concentration in mouse infected with Candida albicans at 5 mg/kg, ip after 1 hr", "type": "ADME, organism-based", "design": "dose 5 mg/kg, route intraperitoneal", "conditions": "read-out: MIC"}, "[5]": {"test": "Plasma concentration in mouse infected with Candida albicans at 5 mg/kg, ip after 3 hrs", "type": "ADME, organism-based", "design": "dose 5 mg/kg, route intraperitoneal", "conditions": "read-out: MIC"}, "[6]": {"test": "Plasma concentration in mouse infected with Candida albicans at 5 mg/kg, ip after 6 hrs", "type": "ADME, organism-based", "design": "dose 5 mg/kg, route intraperitoneal", "conditions": "read-out: MIC"}, "[7]": {"test": "Plasma concentration in mouse infected with Candida albicans at 5 mg/kg, ip after 12 hrs", "type": "ADME, organism-based", "design": "dose 5 mg/kg, route intraperitoneal", "conditions": "read-out: MIC"}, "[8]": {"test": "Plasma concentration in mouse infected with Candida albicans at 5 mg/kg, ip after 24 hrs", "type": "ADME, organism-based", "design": "dose 5 mg/kg, route intraperitoneal", "conditions": "read-out: MIC"}, "[9]": {"test": "Plasma concentration in mouse infected with Candida albicans at 10 mg/kg, ip after 1 hr", "type": "ADME, organism-based", "design": "dose 10 mg/kg, route intraperitoneal", "conditions": "read-out: MIC"}, "[10]": {"test": "Plasma concentration in mouse infected with Candida albicans at 10 mg/kg, ip after 3 hrs", "type": "ADME, organism-based", "design": "dose 10 mg/kg, route intraperitoneal", "conditions": "read-out: MIC"}, "[11]": {"test": "Plasma concentration in mouse infected with Candida albicans at 10 mg/kg, ip after 6 hrs", "type": "ADME, organism-based", "design": "dose 10 mg/kg, route intraperitoneal", "conditions": "read-out: MIC"}, "[12]": {"test": "Plasma concentration in mouse infected with Candida albicans at 10 mg/kg, ip after 12 hrs", "type": "ADME, organism-based", "design": "dose 10 mg/kg, route intraperitoneal", "conditions": "read-out: MIC"}, "[13]": {"test": "Plasma concentration in mouse infected with Candida albicans at 10 mg/kg, ip after 24 hrs", "type": "ADME, organism-based", "design": "dose 10 mg/kg, route intraperitoneal", "conditions": "read-out: MIC"}, "Candida albicans [14]": {"tested_on": "Candida albicans", "test": "Antifungal activity against Candida albicans", "type": "functional"}, "Candida albicans [15]": {"tested_on": "Candida albicans", "test": "Antifungal activity against Candida albicans infected in mouse assessed as fungal load in brain at 60 mg/kg, po after 10 days", "type": "functional"}, "Candida albicans [16]": {"tested_on": "Candida albicans", "test": "Antifungal activity against Candida albicans infected in mouse assessed as decrease in fungus-induced mortality rate at 60 mg/kg, po", "type": "functional, organism-based", "design": "dose 60 mg/kg"}, "Candida albicans [17]": {"tested_on": "Candida albicans", "test": "Antifungal activity against Candida albicans infected in mouse assessed as decrease in fungus-induced mortality rate at 10 mg/kg, ip", "type": "functional, organism-based", "design": "dose 10 mg/kg"}, "[18]": {"test": "Plasma concentration in mouse infected with Candida albicans at 60 mg/kg, po after 1 hr", "type": "ADME, organism-based", "design": "dose 60 mg/kg, route oral", "conditions": "read-out: MIC"}, "[19]": {"test": "Plasma concentration in mouse infected with Candida albicans at 60 mg/kg, po after 3 hrs", "type": "ADME, organism-based", "design": "dose 60 mg/kg, route oral", "conditions": "read-out: MIC"}, "[20]": {"test": "Plasma concentration in mouse infected with Candida albicans at 60 mg/kg, po after 6 hrs", "type": "ADME, organism-based", "design": "dose 60 mg/kg, route oral", "conditions": "read-out: MIC"}, "[21]": {"test": "Plasma concentration in mouse infected with Candida albicans at 60 mg/kg, po after 12 hrs", "type": "ADME, organism-based", "design": "dose 60 mg/kg, route oral", "conditions": "read-out: MIC"}, "[22]": {"test": "Plasma concentration in mouse infected with Candida albicans at 60 mg/kg, po after 24 hrs", "type": "ADME, organism-based", "design": "dose 60 mg/kg, route oral", "conditions": "read-out: MIC"}}, "note": "Calls of active or inactive are those of the source. The calls are words filed in the database; no cut-off is given here. Numbered stars: 1 amine (or outer) side, 2 acyl side, 3 side chain; on linkers, the order of the positions; unused ones are H or OH. Bridge positions count the residues as written; N and C are the ends. Square brackets hold non-standard residues; d marks the D form. Peptide text beside a SMILES is read from it. * marks the point of attachment. pTerphenylCO(4''-OnC5H11) = CCCCCOc1ccc(-c2ccc(-c3ccc(C(=O)*)cc3)cc2)cc1; Orn(4R-OH,5R-OH) = O=C([C@H](C[C@@H](O)[C@@H](O)N[*:3])N[*:1])[*:2]; hTyr(3S-OH,4S-OH) = N[C@H](C(=O)O)[C@H](O)[C@@H](O)c1ccc(O)cc1; Pro(3S-OH,4S-Me) = C[C@H]1CN[C@H](C(=O)O)[C@H]1O; Hyp = O=C(O)[C@@H]1C[C@@H](O)CN1"}
{"smiles": "CCCCCOc1ccc(-c2ccc(-c3ccc(C(=O)N[C@H]4C[C@@H](O)[C@@H](O)NC(=O)[C@@H]5[C@@H](O)[C@@H](C)CN5C(=O)[C@H]([C@@H](C)O)NC(=O)[C@H]([C@H](O)[C@@H](O)c5ccc(O)cc5)NC(=O)[C@@H]5C[C@@H](O)CN5C(=O)[C@H]([C@@H](C)O)NC4=O)cc3)cc2)cc1", "note": "[ANIDULAFUNGIN] ({pTerphenylCO(4''-OnC5H11)}-[Orn(4R-OH,5R-OH)]T[Hyp][hTyr(3S-OH,4S-OH)]T[Pro(3S-OH,4S-Me)]; lactam 1-C)", "values": [{"measurement": "log10CFU/g", "setting": "Candida albicans [1]", "result": 2.65}, {"measurement": "inhibition", "setting": "Candida albicans [2]", "result": "inactive"}, {"measurement": "inhibition", "setting": "Candida albicans [3]", "result": "inactive"}, {"measurement": "concentration at 1 h", "setting": "[4]", "result": 2500, "unit": "ng/mL"}, {"measurement": "concentration at 3 h", "setting": "[5]", "result": 1730, "unit": "ng/mL"}, {"measurement": "concentration at 6 h", "setting": "[6]", "result": 1660, "unit": "ng/mL"}, {"measurement": "concentration at 12 h", "setting": "[7]", "result": 1180, "unit": "ng/mL"}, {"measurement": "concentration at 24 h", "setting": "[8]", "result": 180, "unit": "ng/mL"}, {"measurement": "concentration at 1 h", "setting": "[9]", "result": 4020, "unit": "ng/mL"}, {"measurement": "concentration at 3 h", "setting": "[10]", "result": 4910, "unit": "ng/mL"}, {"measurement": "concentration at 6 h", "setting": "[11]", "result": 3180, "unit": "ng/mL"}, {"measurement": "concentration at 12 h", "setting": "[12]", "result": 2730, "unit": "ng/mL"}, {"measurement": "concentration at 24 h", "setting": "[13]", "result": 1390, "unit": "ng/mL"}, {"measurement": "MIC", "setting": "Candida albicans [14]", "result": 0.03, "unit": "µg/mL"}]}
{"smiles": "C[C@@H](c1ncncc1F)[C@](O)(Cn1cncn1)c1ccc(F)cc1F", "note": "[VORICONAZOLE]", "values": [{"measurement": "log10CFU/g", "setting": "Candida albicans [15]", "result": 3.23}, {"measurement": "inhibition", "setting": "Candida albicans [16]", "result": "Active"}, {"measurement": "Activity", "setting": "Candida albicans [17]", "result": "Active"}, {"measurement": "concentration at 1 h", "setting": "[18]", "result": 7410, "unit": "ng/mL"}, {"measurement": "concentration at 3 h", "setting": "[19]", "result": 7280, "unit": "ng/mL"}, {"measurement": "concentration at 6 h", "setting": "[20]", "result": 9470, "unit": "ng/mL"}, {"measurement": "concentration at 12 h", "setting": "[21]", "result": 5370, "unit": "ng/mL"}, {"measurement": "concentration at 24 h", "setting": "[22]", "result": 160, "unit": "ng/mL"}, {"measurement": "MIC", "setting": "Candida albicans [14]", "result": 0.06, "unit": "µg/mL"}]}
